From patent publication US20200140489A1 (priority 2013, published 2020)
Read-outs that look alike come from different tables or passages of the source. Positions of bridges follow the written chain, without caps; N, C: chain ends. Non-standard residues stand in square brackets, D forms with d. Residues, ends and D or L forms follow the SMILES beside them. NMeF = CN[C@@H](Cc1ccccc1)C(=O)O; NMeN = CN[C@@H](CC(N)=O)C(=O)O; NMeC = CN[C@@H](CS)C(=O)O; Nphe = O=C(O)CNCc1ccccc1

How the values were obtained:
AgrC-I [1] = target: T1, AgrC-I (Staphylococcus aureus, UniProt O07911); experiment: Hemolysis assay, wild-type group-I strain RN6390B, rabbit red blood cells; conditions: for IC50: read-out: AgrC-I IC50, hemolysis assay, 200 fM − 10 μM
AgrC-II [2] = target: T2, AgrC-II (Staphylococcus aureus, UniProt O33587); type: cell-based, S. aureus; conditions: for IC50: read-out: AgrC-II IC50, fluorescence reporter strain
AgrC-IV [3] = target: T3, AgrC-IV (Staphylococcus aureus, UniProt Q309Z2); type: cell-based, S. aureus; conditions: for IC50: read-out: AgrC-IV IC50, fluorescence reporter strain
AgrC-I [4] = target: T1, AgrC-I; type: cell-based, S. aureus; conditions: for IC50: read-out: AgrC-I IC50
AgrC-IV [5] = target: T3, AgrC-IV; experiment: Hemolysis assay, wild-type group-IV strain RN4850, rabbit red blood cells; conditions: for IC50: read-out: AgrC-IV IC50, hemolysis assay, 200 fM − 10 μM
AgrC-II [6] = target: T2, AgrC-II; experiment: Hemolysis assay, wild-type group-II strain RN6923, rabbit red blood cells; conditions: for IC50: read-out: AgrC-II IC50, hemolysis assay, 200 fM − 10 μM
AgrC-III [7] = target: T4, AgrC-III (Staphylococcus aureus, UniProt O33590); type: cell-based, S. aureus; conditions: for IC50: read-out: AgrC-III IC50, fluorescence reporter strain
AgrC-III [8] = target: T4, AgrC-III; experiment: Hemolysis assay, wild-type group-III strain MN8, rabbit red blood cells
[9] = test system: TSST-1 production in wild-type group-III S. aureus (MN8); type: cell-based
AgrC-III [10] = target: T4, AgrC-III; conditions: read-out: AgrC-III EC50; β-lactamase reporter strain; 2.5 pM − 10 μM
[11] = selected second-generation analogues
[12] = second-generation analogues, 200 fM − 10 μM
[13] = second-generation analogues, fluorescence reporter strain, 200 fM − 10 μM
[14] = read-out: AgrC-III IC50, selected second-generation analogues, 200 fM − 10 μM
[15] = AIPs tested over 200 fM − 10 μM or (b1) 2.5 pM − 10 μM, triplicate
[16] = read-out: AgrC-III IC50, 200 fM − 10 μM
[17] = fluorescence reporter strain, AIPs tested over 200 fM − 10 μM or (b1) 2.5 pM − 10 μM, triplicate

T1 sequence (O07911 1-430): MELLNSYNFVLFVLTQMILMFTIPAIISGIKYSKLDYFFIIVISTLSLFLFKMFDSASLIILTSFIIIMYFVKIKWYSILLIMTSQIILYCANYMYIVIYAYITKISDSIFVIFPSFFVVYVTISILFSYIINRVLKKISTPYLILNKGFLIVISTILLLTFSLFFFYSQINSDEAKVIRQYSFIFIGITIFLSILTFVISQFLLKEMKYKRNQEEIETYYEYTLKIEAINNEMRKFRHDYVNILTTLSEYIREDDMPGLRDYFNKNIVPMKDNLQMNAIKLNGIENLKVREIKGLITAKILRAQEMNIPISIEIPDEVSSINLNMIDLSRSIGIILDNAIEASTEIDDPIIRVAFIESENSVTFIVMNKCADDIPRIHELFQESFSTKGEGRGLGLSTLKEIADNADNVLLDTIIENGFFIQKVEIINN
T2 sequence (O33587 1-437): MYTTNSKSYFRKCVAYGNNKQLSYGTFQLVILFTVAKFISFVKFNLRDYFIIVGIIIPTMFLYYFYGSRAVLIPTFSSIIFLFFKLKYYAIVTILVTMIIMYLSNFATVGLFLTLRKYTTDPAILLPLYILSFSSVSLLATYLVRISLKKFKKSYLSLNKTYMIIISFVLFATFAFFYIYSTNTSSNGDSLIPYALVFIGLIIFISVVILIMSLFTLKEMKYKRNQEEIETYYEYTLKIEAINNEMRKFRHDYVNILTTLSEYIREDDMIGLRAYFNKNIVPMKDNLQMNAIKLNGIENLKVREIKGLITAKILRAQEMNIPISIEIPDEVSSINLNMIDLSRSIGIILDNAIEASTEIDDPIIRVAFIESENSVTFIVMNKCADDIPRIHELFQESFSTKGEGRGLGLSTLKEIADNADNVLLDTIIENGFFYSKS
T4 sequence (O33590 1-425): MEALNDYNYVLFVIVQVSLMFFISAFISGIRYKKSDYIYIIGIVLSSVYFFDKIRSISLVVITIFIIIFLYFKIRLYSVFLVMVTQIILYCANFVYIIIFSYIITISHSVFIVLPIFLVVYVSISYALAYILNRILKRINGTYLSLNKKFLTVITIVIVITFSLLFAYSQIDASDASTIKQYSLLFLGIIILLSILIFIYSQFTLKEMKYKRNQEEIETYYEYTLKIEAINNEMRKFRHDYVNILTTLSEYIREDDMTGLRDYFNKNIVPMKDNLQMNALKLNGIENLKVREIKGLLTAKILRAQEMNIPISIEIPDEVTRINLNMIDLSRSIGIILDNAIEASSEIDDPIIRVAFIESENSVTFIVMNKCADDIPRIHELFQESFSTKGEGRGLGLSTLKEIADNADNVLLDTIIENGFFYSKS
T3 sequence (Q309Z2 1-430): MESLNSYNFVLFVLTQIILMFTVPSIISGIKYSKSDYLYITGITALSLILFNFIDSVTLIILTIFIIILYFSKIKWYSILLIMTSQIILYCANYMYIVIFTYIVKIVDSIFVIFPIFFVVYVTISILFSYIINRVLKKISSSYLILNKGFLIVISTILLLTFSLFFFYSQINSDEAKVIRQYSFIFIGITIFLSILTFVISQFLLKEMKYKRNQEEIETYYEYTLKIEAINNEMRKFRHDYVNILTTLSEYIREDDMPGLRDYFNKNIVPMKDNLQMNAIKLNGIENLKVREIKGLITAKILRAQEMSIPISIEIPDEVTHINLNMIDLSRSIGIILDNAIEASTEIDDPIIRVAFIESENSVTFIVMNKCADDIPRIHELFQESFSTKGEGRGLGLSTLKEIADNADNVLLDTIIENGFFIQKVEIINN

| Compound | IC50 (AgrC-I [1]; [11]) [nM] | IC50 (AgrC-II [2]; [12]) [nM] | IC50 (AgrC-IV [3]; [12]) [nM] | IC50 (AgrC-IV [5]; [11]) [nM] | IC50 (AgrC-II [6]; [11]) [nM] | IC50 (AgrC-III [7]; [12]) [nM] | IC50 (AgrC-III [8]; [14]) [nM] | IC50 (AgrC-II [2]; [15]) [nM] | IC50 (AgrC-III [8]; [16]) [nM] | IC50 (AgrC-IV [3]; [15]) [nM] | also measured |
| --- | --- | --- | --- | --- | --- | --- | --- | --- | --- | --- | --- |
| CC(C)C[C@@H]1NC(=O)[C@H](Cc2ccccc2)NC(=O)[C@H](C)NC(=O)[C@@H](NC(=O)[C@H](C)NC(=O)[C@H](C)N)CSC(=O)[C@H](CC(C)C)NC1=O [AIP-III I1A/N2A/D4A, A-A-(C-A-F-L-L)] (H-AACAFLL; thioester 3-C) | 0.0411 | 0.604 | 0.0161 | 0.14 | 0.0606 | 0.0734 | 0.243 | – | – | – | IC50 (AgrC-I [4]; [13]): 0.304 nM |
| CC[C@H](C)[C@@H]1NC(=O)[C@H](Cc2ccccc2)NC(=O)[C@H](CC(=O)O)NC(=O)[C@@H](NC(=O)[C@@H](NC(=O)[C@H](CO)NC(=O)[C@@H](N)Cc2ccc(O)cc2)[C@@H](C)O)CSC(=O)[C@H](CCSC)NC1=O [AIP-I, Y-S-T-(C-D-F-I-M), reference compound] (H-YSTCDFIM; thioester 4-C) | – | – | – | – | – | – | – | 8 | 6.12 | – | IC50 (AgrC-IV [5]): 189 nM; IC50 (AgrC-II [6]): 3.34 nM; IC50 (AgrC-III [7]; [15]): 0.522 nM |
| CC[C@H](C)[C@H](N)C(=O)N[C@@H](CC(N)=O)C(=O)N[C@H]1CSC(=O)[C@H](CC(C)C)NC(=O)[C@H](CC(C)C)NC(=O)[C@H](Cc2ccccc2)NC(=O)[C@H](C)NC1=O [AIP-III D4A, I-N-(C-A-F-L-L)] (H-INCAFLL; thioester 3-C) | – | – | – | – | – | – | – | – | 0.163 | – | fold increase of inhibitory activity relative to AIP-III (AgrC-II [2]; gfp reporter, group-II): at least 10 fold; fold more active inhibitor than tAIP-I D2A (AgrC-II [2]; gfp reporter, group-II): ~10 fold; fold increase of inhibitory activity relative to AIP-III (AgrC-IV [3]; gfp reporter, group-IV): at least 10 fold; fold more active inhibitor than tAIP-I D2A (AgrC-IV [3]; gfp reporter, group-IV): ~10 fold; fold increase of inhibitory activity relative to AIP-III (AgrC-I [4]; gfp reporter, group-I): at least 10 fold; fold more active inhibitor than tAIP-I D2A (AgrC-I [4]; gfp reporter, group-I): ~10 fold; reduction of TSST-1 levels [9]: 80%; fold more active than tAIP-I D2A in the hemolysis assay (AgrC-IV [5]; group IV strain): three; IC50 (AgrC-IV [5]): 0.106 nM; fold more active than tAIP-I D2A in the hemolysis assay (AgrC-II [6]; group-II strain): 40 fold; fold increase of inhibitory activity relative to AIP-III (AgrC-III [7]; gfp reporter, group-III): at least 10 fold; fold more active inhibitor than tAIP-I D2A (AgrC-III [7]; gfp reporter, group-III): ~10 fold |
| CC[C@H](C)[C@H](N)C(=O)N[C@@H](CC(N)=O)C(=O)N(C)[C@H]1CSC(=O)[C@H](CC(C)C)NC(=O)[C@H](CC(C)C)NC(=O)[C@H](Cc2ccccc2)NC(=O)[C@H](CC(=O)O)NC1=O [AIP-III N-Me-C3, I-N-(NMeC-D-F-L-L)] (H-IN[NMeC]DFLL; thioester 3-C) | – | – | – | – | – | – | – | 134 | – | 106 | IC50 (AgrC-I [4]; [17]): 137 nM; EC50 (AgrC-III [10]): > 1000 nM |
| CC(=O)N[C@H]1CSC(=O)[C@H](CC(C)C)NC(=O)[C@H](CC(C)C)NC(=O)[C@H](Cc2ccc(O)cc2)NC(=O)[C@H](C)NC1=O [tAIP-III D2A/F3Y, Ac-(C-A-Y-L-L)] (Ac-CAYLL; thioester 1-C) | 0.279 | 1.15 | 0.0306 | 0.134 | 0.204 | 0.387 | 0.265 | – | – | – | IC50 (AgrC-I [4]): 0.279 nM |
| CC(C)C[C@@H]1NC(=O)[C@H](Cc2ccccc2)NC(=O)[C@H](C)NC(=O)[C@@H](NC(=O)[C@H](CC(N)=O)NC(=O)[C@H](C)N)CSC(=O)[C@H](CC(C)C)NC1=O [AIP-III I1A/D4A, A-N-(C-A-F-L-L)] (H-ANCAFLL; thioester 3-C) | 0.0103 | 2.35 | 0.101 | 0.284 | 0.793 | 0.28 | 0.551 | – | – | – | fold lower concentrations inhibiting hemolysis than AIP-III D4A (AgrC-I [1]; group-I): eight; fold change against AgrC-II relative to AIP-III D4A (AgrC-II [2]; gfp reporter): < 5 fold; IC50 (AgrC-I [4]; [13]): 0.328 nM |
| CC[C@H](C)[C@H](N)C(=O)N(C)[C@@H](CC(N)=O)C(=O)N[C@H]1CSC(=O)[C@H](CC(C)C)NC(=O)[C@H](CC(C)C)NC(=O)[C@H](Cc2ccccc2)NC(=O)[C@H](CC(=O)O)NC1=O [AIP-III N-Me-N2, I-NMeN-(C-D-F-L-L)] (H-I[NMeN]CDFLL; thioester 3-C) | – | – | – | – | – | – | – | 3.19 | – | 9.54 | IC50 (AgrC-I [4]; [17]): 8.04 nM; EC50 (AgrC-III [10]): 19 nM |
| CC[C@H](C)[C@H](N)C(=O)N[C@@H](CC(N)=O)C(=O)N[C@H]1CSC(=O)[C@H](CC(C)C)NC(=O)[C@H](CC(C)C)NC(=O)CN(Cc2ccccc2)C(=O)[C@H](CC(=O)O)NC1=O [AIP-III nF5, I-N-(C-D-nF-L-L)] (H-INCD[Nphe]LL; thioester 3-C) | – | – | – | – | – | – | – | 75.6 | – | 0.839 | fold reduction of potency for AgrC-II versus AIP-III (AgrC-II [2]; gfp reporter): 13 fold; fold increase of inhibitory activity relative to AIP-III (AgrC-IV [3]; gfp reporter, group-IV): 10 fold; IC50 (AgrC-I [4]; [17]): 13.8 nM; IC50 (AgrC-III [7]; [15]): > 1000 nM; EC50 (AgrC-III [10]): 202 nM |
| CC(C)C[C@@H]1NC(=O)[C@H](CO)NC(=O)[C@H](CO)NC(=O)[C@@H](NC(=O)[C@H](C)NC(=O)[C@H](CC(N)=O)NC(=O)[C@@H](NC(=O)CN)C(C)C)CSC(=O)[C@H](Cc2ccccc2)NC1=O [AIP-II, G-V-N-A-(C-S-S-L-F), reference compound] (H-GVNACSSLF; thioester 5-C) | – | – | – | – | – | – | – | – | 3.59 | 0.396 | IC50 (AgrC-I [1]): 0.89 nM; IC50 (AgrC-I [4]): 1.62 nM; IC50 (AgrC-IV [5]): 1.19 nM; IC50 (AgrC-III [7]; [15]): 0.532 nM |
| CC(=O)N[C@H]1CSC(=O)[C@H](CC(C)C)NC(=O)[C@H](CC(C)C)NC(=O)[C@H](Cc2c[nH]c3ccccc23)NC(=O)[C@H](C)NC1=O [Ac-(C-A-W-L-L)] (Ac-CAWLL; thioester 1-C) | 0.468 | 1.9 | 0.0363 | 0.194 | 0.126 | 0.509 | 1.08 | – | – | – | IC50 (AgrC-I [4]; [13]): 0.909 nM |
| CC[C@H](C)[C@H](N)C(=O)N[C@@H](CC(N)=O)C(=O)N[C@H]1CSC(=O)[C@H](CC(C)C)NC(=O)[C@H](CC(C)C)NC(=O)[C@H](Cc2ccccc2)N(C)C(=O)[C@H](CC(=O)O)NC1=O [AIP-III N-Me-F5, I-N-(C-D-NMeF-L-L)] (H-INCD[NMeF]LL; thioester 3-C) | – | – | – | – | – | – | – | 1.95 | – | 6.59 | IC50 (AgrC-I [4]; [17]): 4.49 nM; EC50 (AgrC-III [10]): 49.6 nM |
| CC[C@H](C)[C@@H]1NC(=O)[C@H](Cc2ccccc2)NC(=O)[C@H](Cc2ccc(O)cc2)NC(=O)[C@@H](NC(=O)[C@@H](NC(=O)[C@H](CO)NC(=O)[C@@H](N)Cc2ccc(O)cc2)[C@@H](C)O)CSC(=O)[C@H](CCSC)NC1=O [AIP-IV, Y-S-T-(C-Y-F-I-M), reference compound] (H-YSTCYFIM; thioester 4-C) | – | – | – | – | – | – | – | 0.373 | 1.49 | – | IC50 (AgrC-II [6]): 0.0897 nM; IC50 (AgrC-III [7]; [15]): 0.46 nM |
| CC[C@H](C)[C@@H]1NC(=O)[C@H](Cc2ccccc2)NC(=O)[C@H](C)NC(=O)[C@@H](NC(C)=O)CSC(=O)[C@H](CCSC)NC1=O [tAIP-I D2A, Ac-(C-A-F-I-M), reference compound] (Ac-CAFIM; thioester 1-C) | – | – | – | – | – | – | – | – | 0.853 | – | IC50 (AgrC-I [1]): 1.45 nM; IC50 (AgrC-IV [5]): 0.361 nM; IC50 (AgrC-II [6]): 2.5 nM |
| CC[C@H](C)[C@H](N)C(=O)N[C@@H](C)C(=O)N[C@H]1CSC(=O)[C@H](CC(C)C)NC(=O)[C@H](CC(C)C)NC(=O)[C@H](Cc2ccccc2)NC(=O)[C@H](C)NC1=O [AIP-III N2A/D4A, I-A-(C-A-F-L-L)] (H-IACAFLL; thioester 3-C) | 0.0362 | 0.204 | 0.0221 | 0.122 | 0.0661 | 0.0657 | 0.216 | – | – | – | IC50 (AgrC-I [4]; [13]): 0.331 nM |
| CC(=O)N[C@H]1CSC(=O)[C@H](CC(C)C)NC(=O)[C@H](CC(C)C)NC(=O)[C@H](Cc2ccccc2)NC(=O)[C@H](C)NC1=O [tAIP-III D2A, Ac-(C-A-F-L-L)] (Ac-CAFLL; thioester 1-C) | 0.332 | 0.9 | – | 0.306 | 0.711 | – | 0.197 | – | – | – | reduction of TSST-1 levels [9]: 80% |
